Values after ≈ are worked out from the molar mass of the structure shown.
Experiments:
Assay in all cases: ≥ marks a high value that may be exact or a test limit, other limits are often not marked, values filed in µg/mL are converted to µM
[1] = tested on: Escherichia coli ATCC 25922
[2] = tested on: Pseudomonas aeruginosa ATCC 27853
[3] = tested on: Staphylococcus aureus ATCC 25923

Row | MIC [1] | MIC [2] | MIC [3] | SMILES
1 | 3 µM (≈ 5.83 µg/mL) |  |  | CC(C)C[C@H](NC(=O)[C@H](C)NC(=O)[C@H](CCCCN)NC(=O)[C@H](C)NC(=O)[C@H](C)NC(=O)CNC(=O)[C@H](CCCCN)NC(=O)[C@H](CC(C)C)NC(=O)[C@H](CC(C)C)NC(=O)[C@H](CC(=O)O)NC(=O)[C@H](CCCCN)NC(=O)[C@H](Cc1c[nH]c2ccccc12)NC(=O)CN)C(=O)N[C@H](C(=O)N[C@@H](CCCCN)C(=O)N[C@H](C(=O)N[C@H](C(=O)N[C@@H](Cc1ccccc1)C(N)=O)C(C)C)[C@@H](C)O)C(C)C [GWKDLLKGAAKALVKTVF]
2 | 12.5 µM (≈ 27.9 µg/mL) |  |  | CC[C@H](C)[C@H](NC(=O)[C@H](C)NC(=O)CNC(=O)[C@H](C)NC(=O)[C@H](CCCCN)NC(=O)[C@H](CO)NC(=O)[C@H](C)NC(=O)[C@H](CCSC)NC(=O)CN)C(=O)N[C@@H](C)C(=O)NCC(=O)N[C@@H](CCCCN)C(=O)N[C@H](C(=O)N[C@@H](C)C(=O)N[C@@H](CCCCN)C(=O)N[C@H](C(=O)N[C@@H](C)C(=O)N[C@@H](Cc1c[nH]c2ccccc12)C(=O)N[C@@H](CCCCN)C(=O)N[C@@H](C)C(=O)N[C@@H](CC(C)C)C(=O)NCC(=O)NCC(=O)N[C@@H](C)C(N)=O)C(C)C)[C@@H](C)CC [GMASKAGAIAGKIAKVAWKALGGA]
3 | 12.4 µM (≈ 20 µg/mL) | 31.1 µM (≈ 50 µg/mL) | 12.4 µM (≈ 20 µg/mL) | C[C@H](NC(=O)[C@H](Cc1c[nH]c2ccccc12)NC(=O)[C@H](CCCN=C(N)N)NC(=O)[C@H](CCCN=C(N)N)NC(=O)[C@H](C)NC(=O)[C@H](CCCCN)NC(=O)[C@@H](N)Cc1ccc(O)cc1)C(=O)N[C@@H](Cc1c[nH]c2ccccc12)C(=O)N[C@@H](CCCN=C(N)N)C(=O)N[C@@H](Cc1c[nH]c2ccccc12)C(=O)N[C@@H](CCCCN)C(=O)O [YKARRWAWRWK]
4 | 2.73 µM (≈ 3 µg/mL) |  | 2.73 µM (≈ 3 µg/mL) | CC[C@H](C)[C@H](NC(=O)[C@@H](NC(=O)[C@H](CCCCN)NC(=O)[C@H](CC(C)C)NC(=O)[C@H](CC(C)C)NC(=O)CN)C(C)C)C(=O)N[C@@H](CCCCN)C(=O)N[C@H](C(=O)N[C@@H](CC(C)C)C(=O)N[C@@H](CC(C)C)C(N)=O)[C@@H](C)O [GLLKVIKTLL]
5 | 19 µM (≈ 20 µg/mL) | 47.5 µM (≈ 50 µg/mL) | 9.5 µM (≈ 9.99 µg/mL) | NC(=O)[C@H](Cc1c[nH]c2ccccc12)NC(=O)[C@H](CCCN=C(N)N)NC(=O)[C@H](Cc1c[nH]c2ccccc12)NC(=O)[C@H](CCCN=C(N)N)NC(=O)[C@H](Cc1c[nH]c2ccccc12)NC(=O)[C@@H](N)Cc1ccc(O)cc1 [YWRWRW]
6 | > 128 µM |  |  | CC(C)C[C@H](NC(=O)[C@H](Cc1ccccc1)NC(=O)[C@@H]1CCCN1C(=O)[C@H](C)NC(=O)[C@H](C)NC(=O)[C@H](C)NC(=O)[C@@H]1CCCN1C(=O)[C@H](Cc1ccccc1)NC(=O)[C@H](CCCN=C(N)N)NC(=O)[C@H](CCCN=C(N)N)NC(=O)[C@@H](N)C(C)C)C(=O)N[C@@H](CCCN=C(N)N)C(=O)N[C@@H](CCCN=C(N)N)C(N)=O [VRRFPAAAPFLRR]
7 | 11.1 µM (≈ 13 µg/mL) |  | 6 µM (≈ 6.99 µg/mL) | CC[C@H](C)[C@H](NC(=O)[C@H](CCCN=C(N)N)NC(=O)[C@H](CCCCN)NC(=O)[C@H](CC(C)C)NC(=O)[C@H](CC(C)C)NC(=O)CN)C(=O)N[C@@H](CCCCN)C(=O)N[C@@H](CC(C)C)C(=O)N[C@@H](CC(C)C)C(=O)N[C@@H](CC(C)C)C(N)=O [GLLKRIKLLL]
8 | 11.3 µM (≈ 21.7 µg/mL) |  |  | CC(C)[C@H](NC(=O)[C@@H]1CCCN1C(=O)[C@@H](N)Cc1ccccc1)C(=O)N[C@H](C(=O)N[C@@H](Cc1c[nH]c2ccccc12)C(=O)N[C@@H](CCCN=C(N)N)C(=O)N[C@@H](Cc1c[nH]c2ccccc12)C(=O)N[C@@H](Cc1c[nH]c2ccccc12)C(=O)N[C@@H](CCCN=C(N)N)C(=O)N[C@@H](Cc1c[nH]c2ccccc12)C(=O)N[C@@H](Cc1c[nH]c2ccccc12)C(=O)N[C@@H](CCCN=C(N)N)C(=O)NCC(N)=O)[C@@H](C)O [FPVTWRWWRWWRG]
9 | > 54.4 µM |  | > 54.4 µM | CC[C@H](C)[C@H](NC(=O)[C@H](CCCN=C(N)N)NC(=O)[C@H](CCCCN)NC(=O)[C@H](CC(C)C)NC(=O)[C@H](CC(C)C)NC(=O)CN)C(N)=O [GLLKRI]
10 |  | 2 µM (≈ 5.83 µg/mL) |  | CC[C@H](C)[C@H](NC(=O)[C@@H]1CCCN1C(=O)[C@H](CCCCN)NC(=O)[C@H](CC(C)C)NC(=O)[C@H](C)NC(=O)[C@@H](NC(=O)[C@@H](NC(=O)[C@H](CC(C)C)NC(=O)[C@@H](NC(=O)[C@H](CCCCN)NC(=O)[C@H](CCCCN)NC(=O)[C@H](C)NC(=O)[C@H](C)NC(=O)[C@H](CO)NC(=O)[C@@H](NC(=O)[C@H](CC(C)C)NC(=O)[C@H](CCCCN)NC(=O)[C@H](CCCCN)NC(=O)[C@H](CC(C)C)NC(=O)[C@H](Cc1ccccc1)NC(=O)[C@H](CCCCN)NC(=O)[C@H](CCCCN)NC(=O)[C@H](Cc1c[nH]c2ccccc12)NC(=O)[C@@H](N)CCCCN)[C@@H](C)O)C(C)C)[C@@H](C)O)[C@@H](C)O)C(=O)N[C@@H](CO)C(=O)N[C@@H](CO)C(=O)O [KWKKFLKKLTSAAKKVLTTALKPISS]
11 | 16 µM (≈ 29.7 µg/mL) |  |  | CC(C)C[C@H](NC(=O)[C@H](Cc1ccccc1)NC(=O)[C@@H]1CCCN1C(=O)[C@H](Cc1ccc(O)cc1)NC(=O)[C@H](Cc1c[nH]c2ccccc12)NC(=O)[C@H](Cc1ccc(O)cc1)NC(=O)[C@@H]1CCCN1C(=O)[C@H](Cc1ccccc1)NC(=O)[C@H](CCCN=C(N)N)NC(=O)[C@H](CCCN=C(N)N)NC(=O)[C@@H](N)C(C)C)C(=O)N[C@@H](CCCN=C(N)N)C(=O)N[C@@H](CCCN=C(N)N)C(N)=O [VRRFPYWYPFLRR]
12 | 25 µM (≈ 57.3 µg/mL) |  | 200 µM (≈ 459 µg/mL) | CC[C@H](C)[C@H](NC(=O)CNC(=O)[C@H](CCCCN)NC(=O)[C@@H](NC(=O)[C@H](CC(C)C)NC(=O)[C@H](CO)NC(=O)CNC(=O)[C@H](CC(C)C)NC(=O)CNC(=O)[C@H](C)NC(=O)[C@H](CCCCN)NC(=O)[C@H](Cc1ccccc1)NC(=O)[C@@H](NC(=O)[C@H](CCC(=O)O)NC(=O)[C@H](CCCCN)NC(=O)[C@H](CC(C)C)NC(=O)CN)[C@@H](C)CC)C(C)C)C(=O)N[C@@H](C)C(=O)N[C@@H](C)C(=O)N[C@@H](Cc1cnc[nH]1)C(=O)N[C@H](C(=O)N[C@@H](C)C(=O)N[C@@H](CC(N)=O)C(N)=O)C(C)C [GLKEIFKAGLGSLVKGIAAHVAN]
13 | 18.8 µM (≈ 22 µg/mL) |  | 10.3 µM (≈ 12 µg/mL) | CC[C@H](C)[C@H](NC(=O)[C@H](CCCN=C(N)N)NC(=O)[C@H](CCCCN)NC(=O)[C@H](CC(C)C)NC(=O)[C@H](CC(C)C)NC(=O)CN)C(=O)N[C@@H](CCCCN)C(=O)N[C@@H](CC(N)=O)C(=O)N[C@@H](CC(C)C)C(=O)N[C@@H](CC(C)C)C(N)=O [GLLKRIKNLL]
14 | 28 µM (≈ 79.7 µg/mL) |  |  | CC[C@H](C)[C@H](NC(=O)CNC(=O)[C@H](CCSC)NC(=O)[C@H](CCCCN)NC(=O)[C@H](C)NC(=O)[C@H](CC(C)C)NC(=O)[C@H](CCCCN)NC(=O)[C@H](CCC(=O)O)NC(=O)[C@H](CC(C)C)NC(=O)CNC(=O)[C@H](CCCCN)NC(=O)[C@H](CC(C)C)NC(=O)[C@@H](NC(=O)[C@H](CO)NC(=O)[C@H](CC(C)C)NC(=O)[C@H](C)N)[C@@H](C)CC)C(=O)N[C@@H](C)C(=O)N[C@@H](CC(C)C)C(=O)N[C@H](C(=O)N[C@@H](CC(N)=O)C(=O)N[C@H]1CSSC[C@@H](C(=O)O)NC(=O)[C@H](CCCCN)NC(=O)[C@H](CCCCN)NC(=O)[C@H]([C@@H](C)O)NC(=O)[C@H](C)NC(=O)[C@H](CCCCN)NC1=O)[C@@H](C)O [ALSILKGLEKLAKMGIALTNCKATKKC]
